Data: patent publication EP1881000A1, “Conjugates of 2-fluoro-2-deoxy-glucose and their uses as anti cancer agents” (INSTITUT NATIONAL DE LA SANTE ET DE LA RECHERCHE MEDICALE …, priority 2006, dated 2008)

Key:
Format in all cases: cell-based
[1] = tested on: Breast cancer adenocarcinoma MCF 7; assay: In vitro cytotoxicity assay (resazurin reduction test); conditions: Homo sapiens; MCF7; 48-h continuous drug exposure
Excerpt: (§1) Normal human fibroblasts were purchased from Promocell (Heidelberg, Germany). This frozen culture was obtained from foreskin waste and the cells used in this work were from the seventh to twelfth passage of the culture. M4Beu, a human melanoma cell line, was established in the laboratory of Dr. J. F. Doré (INSERM, Unit 218, Lyon, France) from metastatic biopsy specimens and maintained in cell culture for almost 20 years in our lab. Breast cancer adenocarcinoma MCF 7, prostatic adenocarcinoma PC 3, colon adenocarcinoma DLD-1, lung non-small cell carcinoma A 549, ovary adenocarcinoma PA1 human cell lines and L 929 murine cell line were purchased from the European Collection of Cell Cultures (ECACC; Salisbury, United Kingdom). Murine Melanoma B16 was purchased from American Type of Culture Collection (ATCC, Manassas, USA) and murine colon carcinoma cell line CT-26 was obtained from Dr I. J. Fidler (University of Texas M.D. Anderson Cancer Center, Houston).
(§2) Stock cell cultures were maintained as monolayers in 75cm^2 culture flasks in Glutamax Eagle's minimum essential medium with Earle's salts (MEM; Gibco BRL, Paisley, UK) supplemented with 10% fetal calf serum (Sigma, St Quentin Fallavier, France), 1 mM sodium pyruvate (Gibco), 1X vitamins solution (Gibco), 1X non essential amino acids solution (Gibco) and 4 µg/ml of gentamicine (Gibco). Cells were grown at 37°C in a humidified atmosphere containing 5% CO2.
(§3) Cells were plated at a density of 5 x 10^3 cells per well in 96-well microplates (Nunclon™, Nunc, Roskilde, Denmark) in 150 µl of culture medium and were allowed to adhere for 16 h before treatment with the compound tested.
(§4) Stock solution of each compound was prepared in dimethylsulfoxide (DMSO) and kept at -20°C. until use. The percentage of DMSO was kept at 0.5% (v/v) whichever the concentration tested. […] Fifty microliters of a 4X solution in MEM was then added and a 48-h continuous drug exposure protocol was used. Then, the cytotoxic effect of compounds on tumour cells was tested by using Resazurin reduction test.
(§5) Resazurin was identified as the Alamar blue dye (O'Brien, J. et al.; European Journal of Biochemistry, 267, 5421-6, (2000)). The resazurin reduction test (RRT) was carried out according to the protocol described here. Briefly, plates were rinsed by 200 µl PBS (37° C, Gibco) using a multichannel dispenser (Labsystems, Helsinki, Finland) and emptied by overturning on absorbent toweling. Then, 150 µl of a 25 µg/ml solution of resazurin in MEM without SVF nor Phenol red was added in each well. The plates were incubated 1 h at 37° C. in an humidified atmosphere with 5% of CO2 for fluorescence development by living cells. Fluorescence was then measured on the automated 96-well plate reader Fluoroskan Ascent FL™ (Labsystems) using an excitation wavelength of 530 nm and an emission one of 590 nm.
(§6) Cytotoxic activity has been tested against the six human tumour cell lines breast adenocarcinoma MCF-7, colon adenocarcinoma DLD-1, ovary adenocarcinoma PA1, prostatic adenocarcinoma PC3, lung carcinoma A549, melanoma M4Beu and a primary culture of human fibroblasts.

[2] = tested on: prostatic adenocarcinoma PC 3; assay: as above; conditions: Homo sapiens; PC3; 48-h continuous drug exposure
Excerpt: as §1, §2, §3, §4, §5, §6

tumour cells = assay: In vitro cytotoxicity assay, statements over all cell lines of Table 1; conditions: Homo sapiens, PA-1
Excerpt: as §1, with “Houston). […]” for “Houston).”
Resazurin was identified as the Alamar blue dye (O'Brien, J. et al.; European Journal of Biochemistry, 267, 5421-6, (2000)). […] The plates were incubated 1 h at 37° C. in an humidified atmosphere with 5% of CO2 for fluorescence development by living cells. Fluorescence was then measured on the automated 96-well plate reader Fluoroskan Ascent FL™ (Labsystems) using an excitation wavelength of 530 nm and an emission one of 590 nm. […]

SMILES	IC50 [1]	IC50 [2]	IC50 (tumour cells)
CC(=O)OC[C@H]1O[C@@H](NC(=O)CNC(=O)CCCc2ccc(N(CCCl)CCCl)cc2)[C@H](F)[C@@H](OC(C)=O)[C@@H]1OC(C)=O [Compound 21a, N-[2-(3,4,6-tri-O-acetyl-2-deoxy-2-fluoro-β-D-glucopyranosylamino)-2-oxoethyl]-4-{4-[bis(2-chloroethyl)amino]phenyl}butanamide]	8 ± 2 µM	10 ± 2 µM	
CC(=O)OC[C@H]1O[C@@H](Oc2ccc(NC(=O)CNC(=O)CCCc3ccc(N(CCCl)CCCl)cc3)cc2)[C@H](F)[C@@H](OC(C)=O)[C@@H]1OC(C)=O [Compound 40a, N-{2-[4-(3,4,6-tri-O-acetyl-2-deoxy-2-fluoro-β-D-glucopyranosyloxy)phenyl]amino-2-oxoethyl}-4-{4-[bis(2-chloroethyl)amino]phenyl}butanamide]		7 ± 2 µM	
O=C(O)CCCc1ccc(N(CCCl)CCCl)cc1 [chlorambucil, reference compound]	> 100 µM		> 40 µM
